Source: patent US10961202B2, “Bis-benzimidazole compounds and methods of using the same” (THE SCRIPPS RESEARCH INSTITUTE, priority 2017, dated 2021)

Test system: r(CUG)12-MBNL1 complex
Assay: Inhibition of the r(CUG)12-MBNL1 complex measured by TR-FRET
Type: biochemical
Settings: 80 nM RNA, 60 nM MBNL1-His6

| Structure (SMILES) | IC50 (Table M) | IC50 (Table L) |
| --- | --- | --- |
| COCCOc1cc(-c2nc3cc(OCCCN(C)C)ccc3[nH]2)c(OC)cc1-c1nc2ccc(OCCCN(C)C)cc2[nH]1 [Compound 262, 3-((2-(4-(6-(3-(dimethylamino)propoxy)-1H-benzo[d]imidazol-2-yl)-2-methoxy-5-(2-methoxyethoxy)phenyl)-1H-benzo[d]imidazol-5-yl)oxy)-N,N-dimethylpropan-1-amine] | 55.5 µM |  |
| CN1CC[C@@H](Oc2ccc3nc(-c4ccc(-c5nc6ccc(O[C@@H]7CCN(C)C7)cc6[nH]5)cc4)[nH]c3c2)C1 [Compound 181] | 54.4 µM |  |
| Cn1c(-c2ccc(-c3nc4ccc(NC(=N)N)cc4n3C)cc2)nc2ccc(NC(=N)N)cc21 [Compound 88] |  | > 200 µM |
| C[C@H](CN(C)C)NC(=O)c1ccc(-c2nc3cc(-c4ccc5[nH]c(-c6ccc(C(=O)N[C@H](C)CN(C)C)cc6)nc5c4)ccc3[nH]2)cc1 [Compound 388] | 30.2 µM |  |
| CN(C)CCOC(=O)c1ccc2nc(-c3ccc(-c4nc5ccc(C(=O)OCCN(C)C)cc5[nH]4)cc3)[nH]c2c1 [Compound 54, bis(2-(dimethylamino)ethyl) 2,2′-(1,4-phenylene)bis(1H-benzo[d]imidazole-6-carboxylate)] |  | 3.6 µM |
| CN(C)CCCCc1ccc(-c2nc3cc(-c4ccc5[nH]c(-c6ccc(CCCCN(C)C)cc6)nc5c4)ccc3[nH]2)cc1 [Compound 385] | 31.2 µM |  |
| CN(C)CCOc1ccc2nc(-c3ccc(-c4nc5ccc(OCCN(C)C)cc5[nH]4)cc3)[nH]c2c1 [Compound 57, 2,2′-((2,2′-(1,4-phenylene)bis(1H-benzo[d]imidazole-6,2-diyl))bis(oxy))bis(N,N-dimethylethanamine)] |  | 119 µM |
| C#CCCCCN(C)CCNC(=O)c1ccc(-c2nc3cc(-c4ccc5[nH]c(-c6ccc(C(=O)NCCN(C)C)cc6)nc5c4)ccc3[nH]2)cc1 [Compound 114, N-(2-(dimethylamino)ethyl)-4-(2′-(4-((2-(hex-5-yn-1-yl(methyl)amino)ethyl)carbamoyl)phenyl)-1H,1′H-[5,5′-bibenzo[d]imidazol]-2-yl)benzamide] |  | 9.5 µM |
| CN1CCC(NC(=O)c2ccc(-c3nc4cc(-c5ccc6[nH]c(-c7ccc(C(=O)O)cc7)nc6c5)ccc4[nH]3)cc2)CC1 [Compound 344] | 154 µM |  |
| CN(C)CCCOc1ccc2nc(-c3ccc(-c4nc5ccc(OCCCN(C)C)cc5[nH]4)c(N)c3)[nH]c2c1 [Compound 291, 3,3′-(((2-amino-1,4-phenylene)bis(1H-benzo[d]imidazole-2,6-diyl))bis(oxy))bis(N,N-dimethylpropan-1-amine)] | 61.5 µM |  |
| CN(C)CCCOc1ccc2nc(-c3ccc(-c4nc5ccc(OCCCN(C)C)cc5[nH]4)c(Br)c3)[nH]c2c1 [Compound 294, 3,3′-(2,2′-(2-bromo-1,4-phenylene)bis(3H-benzo[d]imidazole-5,2-diyl))bis(oxy)bis(N,N-dimethylpropan-1-amine)] | 18.4 µM |  |
| CN(C)CCC#Cc1ccc(-c2nc3cc(-c4ccc5[nH]c(-c6ccc(C#CCCN(C)C)cc6)nc5c4)ccc3[nH]2)cc1 [Compound 386] | 46.4 µM |  |
| CN(C)C/C=C\COc1ccc2nc(-c3ccc(-c4nc5ccc(OC/C=C\CN(C)C)cc5[nH]4)cc3)[nH]c2c1 [Compound 244, (2Z,2′Z)-4,4′-((2,2′-(1,4-phenylene)bis(1H-benzo[d]imidazole-6,2-diyl))bis(oxy))bis(N,N-dimethylbut-2-en-1-amine)] | 23.5 µM |  |
| CN(C)CCNC(=O)c1ccc(-c2nc3cc(-c4ccc5[nH]c(-c6ccc(C(=O)NCCCCCCCCNC(=O)c7ccc(-c8nc9cc(-c%10ccc%11[nH]c(-c%12ccc(C(=O)NCCN(C)C)cc%12)nc%11c%10)ccc9[nH]8)cc7)cc6)nc5c4)ccc3[nH]2)cc1 [Compound 422] | 5.65 µM |  |
| CNCCNC(=O)c1ccc(-c2nc3cc(-c4ccc5[nH]c(-c6ccc(C(=O)NCCN(C)C)cc6)nc5c4)ccc3[nH]2)cc1 [Compound 110, N-(2-(dimethylamino)ethyl)-4-(2′-(4-((2-(methylamino)ethyl)carbamoyl)phenyl)-1H,1′H-[5,5′-bibenzo[d]imidazol]-2-yl)benzamide] |  | 6.9 µM |
| COCCOCCOc1cc(-c2nc3ccc(OCCCN(C)C)cc3[nH]2)ccc1-c1nc2ccc(OCCCN(C)C)cc2[nH]1 [Compound 260] | 37.5 µM |  |
| Nc1ccc2nc(-c3ccc(-c4ccc(-c5nc6ccc(N)cc6[nH]5)cc4)cc3)[nH]c2c1 [Compound 80] |  | 31.3 µM |
| N=C(N)Nc1ccc2nc(-c3ccc(-c4ccc(-c5nc6ccc(NC(=N)N)cc6[nH]5)cc4)cc3)[nH]c2c1 [Compound 81] |  | 6.1 µM |
| C#CCCCCN(C)CCNC(=O)c1ccc2nc(-c3ccc(-c4nc5ccc(C(=O)NCCN(C)C)cc5[nH]4)cc3)[nH]c2c1 [Compound 73] |  | 9.5 µM |
| CN(C)NC(=O)Nc1ccc2nc(-c3ccc(-c4nc5ccc(NC(=O)NN(C)C)cc5[nH]4)cc3)[nH]c2c1 [Compound 66, N,N′-(2,2′-(1,4-phenylene)bis(1H-benzo[d]imidazole-6,2-diyl))bis(2,2-dimethylhydrazinecarboxamide)] |  | > 200 µM |

| Structure (SMILES) | IC50 (Table M) | IC50 (Table L) |
| --- | --- | --- |
| CN(C)NC(=O)c1ccc2nc(-c3ccc(-c4nc5ccc(C(=O)NN(C)C)cc5[nH]4)cc3)[nH]c2c1 [Compound 67] |  | > 200 µM |
| NC(=O)c1ccc2nc(-c3ccc(-c4nc5ccc(C(N)=O)cc5[nH]4)cc3)[nH]c2c1 [Compound 12, 2,2′-(1,4-phenylene)bis(1H-benzo[d]imidazole-6-carboxamide)] |  | > 200 µM |
| CN(C)Cc1cn(-c2ccc3nc(-c4ccc(-c5nc6ccc(-n7cc(CN(C)C)nn7)cc6[nH]5)cc4)[nH]c3c2)nn1 [Compound 247] | 6.8 µM |  |
| CN(C)CCNC(=O)c1ccc(-c2nc3cc(-c4ccc5[nH]c(-c6ccc(C(=O)NCCCCCCCCCNC(=O)c7ccc(-c8nc9cc(-c%10ccc%11[nH]c(-c%12ccc(C(=O)NCCN(C)C)cc%12)nc%11c%10)ccc9[nH]8)cc7)cc6)nc5c4)ccc3[nH]2)cc1 [Compound 423] | 5.31 µM |  |
| O=[N+]([O-])c1ccc2nc(-c3ccc(-c4ccc(-c5nc6ccc([N+](=O)[O-])cc6[nH]5)cc4)cc3)[nH]c2c1 [Compound 79] |  | 43.9 µM |
| CN(C)CCNC(=O)c1ccc(-c2nc3cc(-c4ccc5[nH]c(-c6ccc(C(=O)O)cc6)nc5c4)ccc3[nH]2)cc1 [Compound 390, 4-(2′-(4-((2-(dimethylamino)ethyl)carbamoyl)phenyl)-3H,3′H-[5,5′-bibenzo[d]imidazol]-2-yl)benzoic acid] | > 200 µM |  |
| O=C(N[C@H]1CN2CCC1CC2)c1ccc(-c2nc3cc(-c4ccc5[nH]c(-c6ccc(C(=O)N[C@H]7CN8CCC7CC8)cc6)nc5c4)ccc3[nH]2)cc1 [Compound 342] | 4.38 µM |  |
| c1cc2nc(-c3ccc(-c4nc5ccc(OCCN6CCCC6)cc5[nH]4)cc3)[nH]c2cc1OCCN1CCCC1 [Compound 203] | 103 µM |  |
| CN1CCN(CCNC(=O)c2ccc3nc(-c4ccc(-c5nc6ccc(C(=O)NCCN7CCN(C)CC7)cc6[nH]5)cc4)[nH]c3c2)CC1 [Compound 45, 2,2′-(1,4-phenylene)bis(N-(2-(4-methylpiperazin-1-yl)ethyl)-1H-benzo[d]imidazole-6-carboxamide)] |  | 18.2 µM |
| CC(=O)Nc1ccc2nc(-c3ccc(-c4nc5ccc(NC(C)=O)cc5[nH]4)cc3)[nH]c2c1 [Compound 6, N,N′-(2,2′-(1,4-phenylene)bis(1H-benzo[d]imidazole-5,2-diyl))diacetamide] |  | 112 µM |
| NCCCOc1ccc(-c2nc3cc(-c4ccc5[nH]c(-c6ccc(OCCCN)cc6)nc5c4)ccc3[nH]2)cc1 [Compound 378] | 17.3 µM |  |
| c1cn(-c2ccc(-c3nc4cc(-c5ccc6[nH]c(-c7ccc(-n8ccnc8)cc7)nc6c5)ccc4[nH]3)cc2)cn1 [Compound 107] |  | > 200 µM |
| Cc1cc(-c2nc3ccc(OCCCN(C)C)cc3[nH]2)c(C)cc1-c1nc2ccc(OCCCN(C)C)cc2[nH]1 [Compound 271, (3-[[2-(4-[6-[3-(dimethylamino)propoxy]-1H-1,3-benzodiazol-2-yl]-2,5-dimethylphenyl)-1H-1,3-benzodiazol-6-yl]oxy]propyl)dimethylamine] | > 200 µM |  |
| CN(C)CCCOc1ccc2nc(-c3ccc(-c4nc5ccc(O)cc5[nH]4)cc3)[nH]c2c1 [Compound 249] | 52.6 µM |  |
| CN(C)CCNC(=O)c1ccc2nc(-c3ccc(-c4nc5ccc(C(=O)NCCN(C)CCN)cc5[nH]4)cc3)[nH]c2c1 [Compound 37, N-(2-((2-aminoethyl)(methyl)amino)ethyl)-2-(4-(6-((2-(dimethylamino)ethyl)carbamoyl)-1H-benzo[d]imidazol-2-yl)phenyl)-1H-benzo[d]imidazole-6-carboxamide] |  | 7.8 µM |
| CN(C)CCNC(=O)c1ccc(-c2nc3ccc(-c4ccc5nc(-c6ccc(C(=O)NCc7cn(CCCNCC(=O)N8CCC[C@H]8C(=O)N8CCC[C@H]8C(=O)N8CCC[C@H]8C(=O)N8CCC[C@H]8C(=O)N(CCCn8cc(CNC(=O)c9ccc(-c%10nc%11ccc(-c%12ccc%13nc(-c%14ccc(C(=O)NCCN(C)C)cc%14)[nH]c%13c%12)cc%11[nH]%10)cc9)nn8)CC(N)=O)nn7)cc6)[nH]c5c4)cc3[nH]2)cc1 [Compound 434, (S)-N-(2-amino-2-oxoethyl)-N-(3-(4-((4-(2′-(4-((2-(dimethylamino)ethyl)carbamoyl)phenyl)-3H,3′H-[5,5′-bibenzo[d]imidazol]-2-yl)benzamido)methyl)-1H-1,2,3-triazol-1-yl)propyl)-1-((3-(4-((4-(2′-(4-((2-(dimethylamino)ethyl)carbamoyl)phenyl)-3H,3′H-[5,5′-bibenzo[d]imidazol]-2-yl)benzamido)methyl)-1H-1,2,3-triazol-1-yl)propyl)glycyl-L-prolyl-L-prolyl-L-prolyl)pyrrolidine-2-carboxamide] | 10.5 µM |  |
| Oc1ccc(-c2nc3cc(-c4ccc5[nH]c(-c6ccc(O)cc6)nc5c4)ccc3[nH]2)cc1 [Compound 105] |  | > 200 µM |
| CN(C)C[C@H]1CC[C@H](COc2ccc3nc(-c4ccc(-c5nc6ccc(OC[C@H]7CC[C@H](CN(C)C)CC7)cc6[nH]5)cc4)[nH]c3c2)CC1 [Compound 218, 1,1′-((1r,1′r,4r,4′r)-(((1,4-phenylenebis(1H-benzo[d]imidazole-2,6-diyl))bis(oxy))bis(methylene))bis(cyclohexane-4,1-diyl))bis(N,N-dimethylmethanamine)] | 68.7 µM |  |
| Cc1cc(-c2nc3cc(-c4ccc5[nH]c(-c6cc(C)c(OCCCN(C)C)c(C)c6)nc5c4)ccc3[nH]2)cc(C)c1O [Compound 361] | 9.64 µM |  |
